The values that follow come from patent publication US20240115569A1, “METHODS FOR BLOCKING HER2 SIGNALING FOR TREATING PULMONARY FIBROSIS” (CEDARS-SINAI MEDICAL CENTER, priority 2021, published 2024).

Data set [1] concerns IPF. The note with it: IPF patients; cited from earlier work.
For data set [2], the system named is human lung fibroblasts. The data set is described as follows: Fibroblast invasion assay (BioCoat Matrigel Invasion Chamber). In kind it is cell-based. The note with it: 24 hours, PDGF-BB chemoattractant. On the procedure:
(§1) Fibroblast migration and invasion assays were performed as previously described (Geng et al., 2019; L1 et al., 2011). In brief, fibroblasts were loaded into the top chamber of a Corning BioCoat Control cell culture insert containing a polycarbonate membrane with 8.0 µm pores (for migration) or a BioCoat Matrigel Invasion Chamber (BD Sciences; for invasion). All other settings were the same for the cell migration assay as for the cell invasion assay.
(§2) PDGF-BB (10 ng/ml, Peprotech) was used as a chemoattractant in the bottom chamber. After 24 hours culture at 37° C. with 5% CO2, invasive cells that had passed through the matrigel layer and clung to the bottom of the insert membrane were determined as invasive fibroblasts. Cells remaining in the upper chamber were defined as non-invasive fibroblasts. For quantification of the migration and invasion indices, the membrane filters containing cells were fixed and stained with the Protocol Hema 3 stain set (Thermo Fisher Scientific) and counted in 5 randomly chosen fields per filter from triplicate filters per sample at ×40 magnification. […] The cell migration or the cell invasion index was calculated as the number of cells attached to the bottom of control or Matrigel-coated membranes after 24 hours, normalized to respective control lung fibroblasts.

Data set [3] has as its system human lung fibroblasts. As to the kind of experiment: Fibroblast migration assay (BioCoat control insert). Type of data set: cell-based. The conditions noted are these: 24 hours, PDGF-BB chemoattractant. On the procedure:
as §1, §2

Data set [4] deals with NSG mice injected with SEMA7A high IPF fibroblasts. The data set is described as follows: Humanized SCID mouse model of IPF. Type of data set: in vivo. The conditions noted are these: assessed on day 63. On the procedure:
Humanized SCID mouse model of IPF was generated as previously reported (Trujillo et al., 2010). Female NOD-scid-IL2Rγc−/− (NSG) mice (6 to 8 weeks old) were purchased from the Jackson Laboratory. The NSG mice received single-cell preparations of SEMA7A high and negative IPF lung fibroblasts (0.5×10^6 cells/mouse) via tail vein injection. […] For the anti-ERBB2 antibody studies, mice were injected with IgG1 (InVivoPlus human IgG1 isotype control, Bio X Cell) or anti-HER2 (Pertuzumab, kindly provided by Genentech) twice per week, 100 μg/mouse from day 35 to 63. Lung fibrosis was assessed on day 63 after fibroblast transfer. The left lobe was used for histology and right lobes were used for hydroxyproline assay after right ventricle perfusion to clear the blood in lungs.

For data set [5], the system named is C57BL/6J mice. The data set is described as follows: Bleomycin-induced lung fibrosis. In kind it is in vivo, mouse. The note with it: 1.25 U/kg bleomycin intratracheal; gavaged every day; 21 days; vs vehicle; trichrome and hydroxyproline.
Description: Control animals received saline alone. The tracheostomy site was sutured, and the animals were allowed to recover. […] Mice were euthanized 21 days after bleomycin treatment, and lung tissues were collected for experiments.
The test system of data set [6] is IPF lung fibroblasts. As to the kind of experiment: qRT-PCR of genes specific to invasive or non-invasive fibroblasts. In kind it is cell-based, human. The conditions noted are these: IPF lung fibroblasts after Lapatinib treatment. On the procedure:
Small interfering RNA (siRNA) knockdown assays were performed using Lipofectamin RNAiMAX Transfection Reagent following the manufacturer's protocol (Thermo Fisher Scientific). Commercial si-RNA used were listed: si-FOXF1 (Santa Cruz Biotechnology, sc-60655), si-CREBRF (Santa Cruz Biotechnology, sc-91839), si-TSC22D1 (Thermo Fisher Scientific, 16708), si-MXI1 (Santa Cruz Biotechnology, sc-35835), si-KLF9 (Santa Cruz Biotechnology, sc-37716), si-NFE2L2 (Santa Cruz Biotechnology, sc-37030), si-HMGA2 (Santa Cruz Biotechnology, sc-37994) si-DPF3 (Santa Cruz Biotechnology, sc-92150) and si-LIN00152 (Dharmacon, SMARTpool: Lincode CYTOR siRNA). Si-FENDRR were synthesized by Integrated DNA Technologies (IDT) (Table 1). RNA was isolated using RNeasy Mini kit (QIAGEN) following the manufacturer's protocol. […] Reverse Transcriptase (Progema) was used for cDNA synthesis. Gene expression was measured relative to the endogenous reference gene GAPDH using the comparative ACT method. The primer sequences used were listed (Table 1).
A general note: Real-time PCR tracks product formation cycle by cycle.

Data set [7] concerns fibroblasts. The data set is described as follows: Calcein AM cell viability assay. The note with it: Lapatinib treated cells for 24 hours. In kind it is cell-based, human. The procedure: Cell growth rate of si-CTL and si-FENDRR fibroblasts were measured by IncuCyte ZOOM Live Cell Analysis System (Essen BioScience). The viability of lapatinib-treated fibroblasts or control fibroblasts was examined by Calcein AM Cell Viability Assay Kit (Trevigen).

The test system of data set [8] is SEMA7A, F3, and ITGA6. The data set is described as follows: Flow cytometry of cell surface markers of invasive fibroblasts. In kind it is cell-based, human. The conditions noted are these: IPF lung fibroblasts after Lapatinib treatment.
Protocol: Briefly, cells were resuspended in Hank's balanced saline solution supplemented with 2% FBS, 10 mM […] , 0.1 mM EDTA, Antibiotic-Antimycotic. […] 4',6-diamidino-2-phenylindole (DA-PI) was used to discriminate dead cells.
The subject of data set [9] is FOXF1. The data set is described as follows: Western blot of FOXF1 in IPF lung fibroblasts. Type of data set: cell-based, human. The conditions noted are these: increasing concentration. On the technique in general: In western blotting, separated proteins are transferred to a membrane and probed.
The subject of data set [10] is SEMA7A. The data set is described as follows: Western blot of SEMA7A in IPF lung fibroblasts. In kind it is cell-based, human. The note with it: increasing concentration.
Where [11] appears, read: different doses of Lapatinib or DMSO.

For the molecule `Cc1ccc(=O)n(-c2ccccc2)c1` [pirfenidone], in data set [1], the “lung function / fibrosis” value is “neither of these agents improves lung function or reduces fibrosis” and the “rate of decline in the forced vital capacity” value was “reduce the rate of decline in the forced vital capacity”.

With `COC(=O)c1ccc2c(c1)NC(=O)/C2=C(\Nc1ccc(N(C)C(=O)CN2CCN(C)CC2)cc1)c1ccccc1` [nintedanib], in [1], the “lung function / fibrosis” value is on record as “neither of these agents improves lung function or reduces fibrosis” and the “rate of decline in the forced vital capacity” value is “reduce the rate of decline in the forced vital capacity”.

Consider “Pertuzumab: humanized monoclonal antibody that binds to the extracellular domain II of HER2”, for which the fibroblast invasion entry in [2] (Pertuzumab or IgG1) was “significantly reduced fibroblast migration and invasion”. In [3] (Pertuzumab or IgG1), the fibroblast migration result is “significantly reduced fibroblast migration and invasion”. In [4] (100 μg/mouse twice per week from day 35 to 63, vs IgG1), the lung fibrosis result was “significantly decreased lung fibrosis”.

As for `CS(=O)(=O)CCNCc1ccc(-c2ccc3ncnc(Nc4ccc(OCc5cccc(F)c5)c(Cl)c4)c3c2)o1` [Lapatinib], in data set [5], the bleomycin-induced lung fibrosis result is “blunted bleomycin-induced lung fibrosis”. Besides, the fibroblast invasion result in [2] (setting [11]) is “inhibited fibroblast migration and invasion in a dose dependent manner”. Further, the “RNA levels of other representative genes specific to invasive or non-invasive fibroblasts” value in data set [6] is “reversed to a non-invasive state”. Moreover, in data set [7], the fibroblast viability entry is “no effect on fibroblast viability”. In [3] (setting [11]), the fibroblast migration entry was “inhibited fibroblast migration and invasion in a dose dependent manner”. Further, in data set [8], the “cell surface expression of SEMA7A, F3, and ITGA6” value is listed as “decreased protein levels”. Besides, the lung fibrosis result in [4] (50 mg/kg every other day from day 35 to day 63, vs vehicle, trichrome and hydroxyproline) is reported as “significantly decreased lung fibrosis”. Besides, the “total protein levels of FOXF1” value in data set [9] is reported as “increased”. The “total protein levels of SEMA7A” value in [10] was “decreased”.
